# Data taken from US9062095B2, “Mutant double cyclized receptor peptides inhibiting β1-adrenoceptor antibodies” (JULIUS-MAXIMILIANS-UNIVERSTITAT-WURZBURG, priority 2007, dated 2015).
# Positions of bridges follow the written chain, without caps; N, C: chain ends.
# Experiments:
# [1] = tested on: beta1-ECII receptor antibody-titers; experiment: in vivo therapy study cyc22AA versus cyc18AA Cys/Ser in rats immunized over 8 months: antibody-titers; set-up: species or system rat; conditions: injections every 4 weeks, start at month 8; mean ±SEM (FIG. 28A)
# Description: FIGS. 28A and B depict the in vivo blocking (=neutralization) capacity of two cysteine-containing 18AA or 22AA cyclopeptide-mutants of the second extracellular loop (ECII) of the human beta1-adrenergic receptor upon therapeutic injection of the different constructs into rats regularly immunized since 8 months (first=basic immunization followed by 7 antigen-boosts every 4 weeks). The effects of four to five subsequent cyclopeptide-injections every 4 weeks are shown. FIG. 28A depicts the mean values±SEM of each of the treated groups of immunized beta1-ECII-antibody positive cardiomyopathic rats (animal number per group is given in the legend). […] The remaining receptor antibody-titers after each injection in % of the antibody-titers at start therapy (month 8) are depicted (columns). Error bars indicate ±SEM. Numbers in columns indicate the number of (subsequent) monthly injection.
# FIG. 28B depicts the time course of antibody-titers after 4 subsequent cyclopeptide-injections, determined before and 20-22 hours after application of the indicated constructs. Values are given in percent of increase or decrease in the respective antibody-titers after each cyclopeptide-injection compared with the antibody-titer determined at start of therapy (month 8). […]
# [2] = tested on: anti-β1-ECII antibodies; experiment: ELISA-competition assay: peptide preincubated with sera/IgG of immunized antibody-positive rats, linear 25AA Cys/Cys-peptide as antigen; assay type: binding, rat; conditions: n=6 sera; incubation 12-14 h, 4° C.; mean ±SEM (FIG. 27)
# Procedure: FIG. 9 is a diagram composed of two major-(upper and lower) panels resuming the blocking effect of both 25AA- and 18AA-cyclopeptide mutants having a Gln closure site, as well as 18AA cyclopeptide mutants having a D-Glu closure site after preincubation (12 h, 4° C., rotating incubation) with sera isolated from 69 different immunized antibody-positive rats in an ELISA-competition assay using the 3 Cys-containing linear 25AA Cys/Cys-peptide as an antigen. The upper panel depicts rat sera preferentially reacting with the Cys/Ser mutated cyclopeptides (type1 reaction, n=64), separated in cyc25AA(Gln)-peptides (left) and cyc18AA(Gln and D-Glu)-peptides (right). The lower panel depicts the rat sera reacting with both the Cys/Ser and the Ser/Cys mutated cyclopeptides (type2 reaction, n=5), again separated in the results obtained with cyc25AA(Gln)-peptides (left) and cyc18AA(Gln and D-Glu)-peptides (right).
# FIG. 11 is a diagram resuming the dose-dependent (x-axis, abscissa: fold molar excess of specific peptides) blocking capacity of various linear and cyclic beta1-ECII-peptides given in % of the unblocked antibody-titer (y-axis, ordinate), including 25AA Cys/Cys linear peptides (black squares), 25AA Cys/Ser cyclopeptide mutants (white squares), 18AA Cys/Cys cyclo-peptides (black diamonds), 18AA Cys/Ser cyclopeptide mutants (white diamonds), and 18AA Cys/Ser linear peptide mutants (vertically hatched diamonds) in an ELISA competition assay performed with sera from n=6 randomly chosen immunized antibody-positive rats.
# FIGS. 27A and B depict the in vitro blocking (=neutralization) capacity of various cysteine-containing cyclopeptide variants of the second extracellular loop (ECII) of the human beta1-adrenergic receptor, determined by testing n=6 individual sera (27A) of immunized beta1-ECII-antibody-positive rats after over-night incubation with the indicated cyclopeptides (12-14 h, 4° C.) by ELISA. Columns in 27A represent the receptor-antibody blocking efficiency of the indicated cyclopeptides in % of the antibody-(ELISA-)signals obtained with unblocked antibody-positive rat sera. Columns in 27B represent the mean blocking efficiency for each cyclopeptide, error bars indicate ±SEM.
# The blocking capacity of β1-ECII-18AA cyclopeptide mutants (Cys13-Ser14 or Ser13-Cys14 mutation having an additional D-Glu-Gln exchange, e.g. at the ring closure site) was compared with the 3 Cys-containing 25AA or 18AA Cys/Cys cyclopeptides after preincubation (12 h, 4° C., rotating incubation over-night) of different numbers of sera from immunized antibody-positive rats in an ELISA-competition assay using the 3 Cys-containing linear 25AA Cys/Cys-peptide as an antigen. FIGS. 4, 5, and 7-10 show the results from measurements performed with sera of n=12 up to n=82 immunized antibody-positive rats using different cyclopeptides of the present invention.
# [3] = tested on: immunized beta1-ECII-antibody positive cardiomyopathic rats; experiment: echocardiographic follow-up of the cyc22AA versus cyc18AA therapy study; assay type: in vivo, rat; conditions: after 4 months of treatment, 1.0 mg/kg Bw (FIG. 29)
# Description: FIG. 29A is a diagram showing the time course (month 0 to 12) of the internal end-systolic and end-diastolic left ventricular diameters (LVES, LVED) of GST/beta1-ECII-immunized untreated (black circles) versus GST/beta1-ECII-immunized animals treated with the indicated various cyclopeptides (see legend) as determined by 2D- and M-mode echocardiography (echocardiographic system: Visual Sonics, Vevo 770 (version V2.2.3), equipped with a 15-17.5 MHz transducer), whereby LVES/LVED is left ventricular end-systolic diameter/left ventricular end-diastolic diameter.
# FIG. 29B is a diagram depicting the time course (month 0 to 12) of the “Cardiac index” (CI) in ml/min/g (body weight) as determined by 2D- and Doppler-echocardiography (echocardiographic system see above).
# In addition, echocardiographic follow-up data after 4 months of treatment also show a superiority of cyc22AA mutants compared with the cyc18AA Cys/Ser mutant regarding their cardioprotective effects in vivo, as assessed by the decrease in both left ventricular end-diastolic (LVED) and end-systolic (LVES) diameters (FIG. 29A), and an increase in “Cardiac Index” (CI, given in ml/min/g body weight; see FIG. 29B), as determined by 2 dimensional- and Doppler-echocardiography using a Visual Sonics echocardiographic system (Vevo 770, version V2.2.3), equipped with a 17.5 MHz transducer).
substance,measurement,setting,value
Cyclo-Arg-Ala-Glu-Ser-Asp-Glu-Ala-Arg-Arg-Cys-Tyr-Asn-Asp-Pro-Lys-Cys-Ser-Asp-Phe-Val-Thr-Gly (cyclo(RAESDEARRCYNDPKCSDFVTG); disulfide 10-16 (inferred)) [cyc22AA Cys/Ser],antibody-titer remaining after 4 injections in percent of the titer at start of therapy,[1],9.0±2.2%
same,blocking-efficiency versus unblocked sera,[2],74.9±5.0%
same,"cardioprotective effects in vivo (decrease in LVED and LVES diameters, increase in Cardiac Index)",[3],superiority
